Test results published in paper PMC11472313, “Development of Fragment-Based Inhibitors of the Bacterial Deacetylase LpxC with Low Nanomolar Activity” (Journal of Medicinal Chemistry, 2024).
Where “and” joins values, the source holds several entries; their conditions need not be identical. Equal values may be shown once.

Experiments:
E. coli TOP10 = assay: disc diffusion assay; type: cell-based; conditions: 0.15 μmol per 6 mm disc
Procedure: (§1) In the performed disc diffusion assays, indole derivatives (S)-13h, (S)-13i, and (S)-13j caused promising halos of growth inhibition.
(§2) The disc diffusion assays against E. coli TOP10 (Thermo Fisher, Waltham, USA), E. coli ATCC 35218, K. pneumoniae ATCC 700603, and P. aeruginosa ATCC 27853 were performed as follows: the bacteria were grown overnight on a Columbia blood agar plate (Oxoid, Basingstoke, UK), and one colony was suspended in sterile saline to yield a suspension of 0.5 McFarland standard. Using a sterile swab, the suspension was spread evenly onto Mueller–Hinton agar (Oxoid, Basingstoke, UK). 0.15 μmol of each compound (dissolved in 10 μL DMSO) was applied onto circular 6 mm diameter filter paper disks, which were then placed on the agar. After incubating the agar plates for 20 h at 37 °C, the diameter of the zone of growth inhibition was measured for each compound.

P. aeruginosa ATCC 27853 = assay: disc diffusion assay; type: cell-based; conditions: 0.15 μmol per 6 mm disc
Procedure: as §1, §2

E. coli ATCC 35218 = assay: disc diffusion assay; type: cell-based; conditions: 0.15 μmol per 6 mm disc
Procedure: as §1, §2

P. aeruginosa LpxC = biological target: T1, P. aeruginosa LpxC (Pseudomonas aeruginosa, UniProt P47205); assay: LC–MS/MS-based P. aeruginosa LpxC enzyme inhibition assay; type: biochemical; conditions: from IC50 via Cheng–Prusoff
T1 construct: made in house; host or cells: E. coli BL21(DE3)
From the text: As Pseudomonas aeruginosa is one of the so-called ESKAPE pathogens,[56] being the leading cause of nosocomial infections throughout the world, and carbapenem-resistant P. aeruginosa strains were assigned the highest priority (priority 1: critical) within the “WHO priority pathogens list for R&D of new antibiotics” (WHO 2017),[57] new antibacterial agents combating these bacteria are urgently required. Thus, our newly developed LpxC inhibitors should be tested for inhibitory activity toward P. aeruginosa LpxC, which shares 57% sequence identity with E. coli LpxC.[28] Therefore, a liquid chromatography with tandem mass spectrometry (LC–MS/MS)-based P. aeruginosa LpxC assay was established. […] After incubation and subsequent termination of the enzymatic reaction, the samples were subjected to LC–MS/MS analysis. Following the chromatographic separation of substrate 1 and deacetylated product 2, the eluted compounds were ionized and subjected to fragmentation. Three multiple reaction monitoring (MRM) transitions were detected per compound [precursor ions: m/z (substrate 1) 832; m/z (deacetylated product 2) 790; product ions: m/z (product 1) 385, collision energy = −60 V; m/z (product 2) 159, collision energy = −80 V; m/z (product 3) 79, collision energy = −140 V]. The MRM transitions 832 → 79 of substrate 1 and 790 → 79 of product 2 were used as quantifiers; the other mass transitions were used as qualifiers.
The protocol of the LC–MS/MS-based P. aeruginosa LpxC assay was based on the E. coli LpxC C63A enzyme assay. Compared to the fluorescence-based enzyme assay, the substrate was diluted 1:10 and the inhibitors were diluted 1:4.
The wells in a black, nonbinding, 96-well fluorescence microplate (Greiner Bio One, Frickenhausen) were filled with 93 μL of 2.69 μM UDP-3-O-[(R)-3-hydroxymyristoyl]-N-acetylglucosamine in assay buffer [50 mM KH2PO4/K2HPO4 (pH = 7.5), 80 μM dithiothreitol, 0.02% Brij 35]. In order to assay the inhibitors at final concentrations from 5 nM up to 5 μM, 2 μL of a respective dilution of the compounds in DMSO were added. The addition of 5 μL of a solution of purified P. aeruginosa LpxC (5 μg mL^–1) in assay buffer led to final concentrations of 2.5 μM UDP-3-O-[(R)-3-hydroxymyristoyl]-N-acetylglucosamine, 7.5 nM P. aeruginosa LpxC, 2% DMSO, and from 5 nM up to 5 μM inhibitor. The microplate was incubated for 30 min at 37 °C in a plate shaker. Then, the biochemical reaction was stopped by adding 40 μL of 0.625 M hydrochloric acid. The reaction mixtures were further incubated for 10 min, sealed, and stored at −80 °C until analysis.
LC–MS/MS-Analysis. The reaction mixtures were separated by ultrahigh performance liquid-chromatography (1290 II Infinity UHPLC, Agilent Technologies), and the eluted compounds were analyzed by mass spectrometry using electrospray ionization in negative ion mode with a triple quadrupole linear ion trap mass spectrometer (QTRAP 5500, AB Sciex LLC).
To analyze the eluted compounds by mass spectrometry, a MRM method was applied. The specific parameters of this method are given in Table S2 (Supporting Information). After detection and selection of the precursor ions (1: m/z 832; 2: m/z 790), both analytes were fragmented, leading to three identical product ions [m/z (product 1) 385, collision energy = −60 V; m/z (product 2) 159, collision energy = −80 V; m/z (product 3) 79, collision energy = −140 V]. The mass transitions 832 → 79 (substrate 1) and 790 → 79 (product 2) were used as quantifiers; the other mass transitions were used as qualifiers. The ratio between substrate 1 and product 2 was quantified by comparing the peak areas of the quantifiers. The percentual inhibition caused by each inhibitor concentration was determined with respect to the amount of the product formed in the noninhibited reaction after 30 min.
Each assay was performed at least two times on separate days. […]

[1] = stability in mouse plasma; type: in vitro ADME; conditions: 1 μM compound, pooled CD-1 mouse plasma; for half-life at 1 μM: CD-1, mouse, pooled plasma, read-out: mouse plasma stability t1/2
Procedure: To determine stability in mouse plasma, the compound (1 μM) was incubated with pooled CD-1 mouse plasma (Neo Biotech, Nanterre, France). Samples were taken at defined time points by mixing aliquots with 4 volumes of acetonitrile containing internal standard (125 nM diphenhydramine). Samples were stored on ice until the end of the incubation, and the precipitated protein was removed by centrifugation (15 min, 4 °C, 4000g, 2 centrifugation steps). Concentration of the remaining test compound at the different time points was analyzed by HPLC–MS/MS (TSQ Quantum Access MAX, Thermo Fisher, Dreieich, Germany). The plasma stability of procain, propantheline, and diltiazem were determined in parallel to confirm enzymatic activity.

[2] = MTT-based cytotoxicity assay; type: cell-based; conditions: human, HepG2 cells
From the text: An MTT-based assay was employed to evaluate the viability of HepG2 cells after challenge with selected inhibitors and performed as described previously.[77]

T1 sequence (P47205 whole entry): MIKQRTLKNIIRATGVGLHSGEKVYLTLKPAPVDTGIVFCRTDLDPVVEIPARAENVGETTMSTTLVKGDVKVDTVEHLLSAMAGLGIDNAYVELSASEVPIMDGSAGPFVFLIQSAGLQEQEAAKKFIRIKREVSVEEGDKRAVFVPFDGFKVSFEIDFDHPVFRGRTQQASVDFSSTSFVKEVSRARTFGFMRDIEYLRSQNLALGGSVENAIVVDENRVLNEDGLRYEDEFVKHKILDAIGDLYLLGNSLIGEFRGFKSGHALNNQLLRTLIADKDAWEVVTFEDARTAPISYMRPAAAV

| Structure (SMILES) | Inhibition zone E. coli TOP 10 (E. coli TOP10) [mm] | Inhibition zone P. aeruginosa ATCC 27853 (P. aeruginosa ATCC 27853) [mm] | Inhibition zone E. coli ATCC 35218 (E. coli ATCC 35218) [mm] | Ki (P. aeruginosa LpxC) | half-life at 1 μM [1] [min] | IC50 [2] [nM] | mouse plasma stability t1/2 [1] [min] |
| --- | --- | --- | --- | --- | --- | --- | --- |
| O=C(NC[C@H](OCc1ccc(C#Cc2ccc(CN3CCOCC3)cc2)cc1)C(=O)NO)c1ccc[nH]1 [(S)-13k] | 27.0 ± 2.8 | 9.0 ± 1.4 | 23.0 ± 1.4 | 29 ± 7.6 nM | – | – | – |
| O=C(NC[C@H](OCc1ccc(C#Cc2ccc(CN3CCOCC3)cc2)cc1)C(=O)NO)c1ccc(Oc2ccccc2)cc1 [(S)-13d] | <6 | 6.3 ± 0.6 | 7.0 ± 1.0 | 196 ± 18 nM | – | – | – |
| O=C(NC[C@H](OCc1ccc(C#Cc2ccc(CN3CCOCC3)cc2)cc1)C(=O)NO)c1cc2ccccc2[nH]1 [(S)-13g] | 16.0 ± 6.1 | <6 | 10.7 ± 0.6 | 46 ± 16.4 nM | – | – | – |
| O=C(NC[C@H](OCc1ccc(C#Cc2ccc(CN3CCOCC3)cc2)cc1)C(=O)NO)c1cc[nH]n1 [(S)-13l] | 30.5 ± 0.7 | 12.0 ± 0 | 25.5 ± 0.7 | 18 ± 2.9 nM | 24.2 ± 5 | 30200 ± 1900 | – |
| O=C(NO)[C@H](CNCc1ccccc1)OCc1ccc(C#Cc2ccc(CN3CCOCC3)cc2)cc1 [(S)-12a, (S)-3-(Benzylamino)-N-hydroxy-2-[(4-{[4-(morpholinomethyl)phenyl]ethynyl}benzyl)oxy]propanamide] | – | – | – | 862 ± 70 nM | – | – | – |
| O=C(NC[C@H](OCc1ccc(C#Cc2ccc(CN3CCOCC3)cc2)cc1)C(=O)NO)c1cccc(-c2ccccc2)c1 [(S)-13c] | 8.0 ± 0 | 6.3 ± 0.6 | 7.7 ± 1.5 | 149 ± 14 nM | – | – | – |
| O=C(NO)[C@H](CN(Cc1ccccc1)Cc1ccccc1)OCc1ccc(C#Cc2ccc(CN3CCOCC3)cc2)cc1 [(S)-37, (S)-3-(Dibenzylamino)-N-hydroxy-2-[(4-{[4-(morpholinomethyl)phenyl]ethynyl}benzyl)oxy]propanamide] | – | – | – | > 3250 nM | – | – | – |
| O=C(NC[C@H](OCc1ccc(C#Cc2ccc(CN3CCOCC3)cc2)cc1)C(=O)NO)c1ccc2[nH]ccc2c1 [(S)-13j] | 22.3 ± 3.8 | 8.3 ± 0.6 | 21.0 ± 1.0 | 5.6 nM and 5.58 nM | 43.1 | 8100 ± 1400 | 43 ± 13 |
| O=C(NC[C@H](OCc1ccc(C#Cc2ccc(CN3CCOCC3)cc2)cc1)C(=O)NO)c1ccccc1 [(S)-13a, (S)-N-{3-(Hydroxyamino)-2-[(4-{[4-(morpholinomethyl)phenyl]ethynyl}benzyl)oxy]-3-oxopropyl}benzamide] | 23.3 ± 0.6 | 7.0 ± 1.0 | 19.3 ± 0.6 | 58.2 ± 0.1 nM | – | – | – |
| Cc1noc(C)c1C(=O)NC[C@H](OCc1ccc(C#Cc2ccc(CN3CCOCC3)cc2)cc1)C(=O)NO [(S)-13n] | 24.0 ± 0 | <6 | 20.0 ± 1.7 | 80.4 ± 9.7 nM | – | – | – |
| O=C(NC[C@H](OCc1ccc(C#Cc2ccc(CN3CCOCC3)cc2)cc1)C(=O)NO)c1cccc2[nH]ccc12 [(S)-13i] | 23.0 ± 1.0 | 6.3 ± 0.6 | 17.0 ± 3.5 | 10.3 ± 2 nM | – | – | – |
| O=C(NC[C@H](OCc1ccc(C#Cc2ccc(CN3CCOCC3)cc2)cc1)C(=O)NO)c1cc(-c2ccccc2)[nH]n1 [(S)-13m] | 14.7 ± 0.6 | <6 | 13.0 ± 1.7 | 41.9 ± 18.5 nM | – | – | – |
| O=C(NC[C@H](OCc1ccc(C#Cc2ccc(CN3CCOCC3)cc2)cc1)C(=O)NO)c1cnc2ccccc2c1 [(S)-13f] | 18.0 ± 6.0 | <6 | 15.0 ± 0 | 91.1 ± 17.5 nM | – | – | – |
| O=C(NC[C@H](OCc1ccc(C#Cc2ccc(CN3CCOCC3)cc2)cc1)C(=O)NO)c1c[nH]c2ccccc12 [(S)-13h] | 18.7 ± 5.8 | 7.0 ± 1.0 | 19.0 ± 1.0 | 5.91 ± 1.47 nM | 22.9 ± 4.8 | 15100 ± 1700 | – |
| O=C(NC[C@H](OCc1ccc(C#Cc2ccc(CN3CCOCC3)cc2)cc1)C(=O)NO)c1ccc2ccccc2n1 [(S)-13e] | 8.0 ± 0 | 6.3 ± 0.6 | 7.7 ± 1.5 | 168 ± 8 nM | – | – | – |
| O=C(NO)[C@H](COCc1ccccc1)OCc1ccc(C#Cc2ccc(CN3CCOCC3)cc2)cc1 [(S)-11a, (S)-3-(Benzyloxy)-N-hydroxy-2-[(4-{[4-(morpholinomethyl)phenyl]ethynyl}benzyl)oxy]propanamide] | – | – | – | 725 ± 335 nM | – | – | – |
